Experiment [1] concerns the target T1, Serine/threonine-protein kinase 17B (Homo sapiens) (UniProt O94768).
T1 sequence (whole entry): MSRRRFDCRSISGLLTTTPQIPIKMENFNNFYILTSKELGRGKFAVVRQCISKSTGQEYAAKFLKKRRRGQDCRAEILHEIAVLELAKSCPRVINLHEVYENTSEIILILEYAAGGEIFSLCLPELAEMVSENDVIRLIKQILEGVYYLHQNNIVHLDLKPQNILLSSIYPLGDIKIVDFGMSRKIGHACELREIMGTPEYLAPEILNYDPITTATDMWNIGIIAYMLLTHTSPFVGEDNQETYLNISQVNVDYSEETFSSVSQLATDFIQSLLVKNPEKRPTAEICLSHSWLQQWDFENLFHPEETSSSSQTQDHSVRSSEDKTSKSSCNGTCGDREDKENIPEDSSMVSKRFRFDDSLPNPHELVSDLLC
The experiment is described as follows: Binding affinity to recombinant […] (unknown origin) assessed as change in melting temperature 10 uM by differential scanning fluorimetry.

In experiment [2] the test system is BaF3. Description: cells. To be noted: Mus musculus, BaF3, 72 h.
Description: Antiproliferative activity against mouse BaF3 cells expressing EGFR WT assessed as cell viability measured after 72 hrs hrs by CellTiter Glo assay
Experiment [3] addresses BMP-2-inducible protein kinase (Homo sapiens) (UniProt Q9NSY1). The experiment is described as follows: Binding affinity to recombinant BMP2K (unknown origin) assessed as change in melting temperature 10 uM by differential scanning fluorimetry. In general terms: In DSF a fluorescence change marks the thermal transition of the protein.
In experiment [4] the target is RAC-alpha serine/threonine-protein kinase (Mus musculus) (UniProt P31750). The experiment is described as follows: Inhibition of AKT phosphorylation in mouse BaF3 cells harboring L858R mutant assessed as […] phosphorylation at 10 to 1000 nM incubated for 8 hrs by Western blot analysis. To be noted: dose 10-1000 nM. Type of experiment: cell-based.
Chain of RAC-alpha serine/threonine-protein kinase (Mus musculus) (P31750 whole entry): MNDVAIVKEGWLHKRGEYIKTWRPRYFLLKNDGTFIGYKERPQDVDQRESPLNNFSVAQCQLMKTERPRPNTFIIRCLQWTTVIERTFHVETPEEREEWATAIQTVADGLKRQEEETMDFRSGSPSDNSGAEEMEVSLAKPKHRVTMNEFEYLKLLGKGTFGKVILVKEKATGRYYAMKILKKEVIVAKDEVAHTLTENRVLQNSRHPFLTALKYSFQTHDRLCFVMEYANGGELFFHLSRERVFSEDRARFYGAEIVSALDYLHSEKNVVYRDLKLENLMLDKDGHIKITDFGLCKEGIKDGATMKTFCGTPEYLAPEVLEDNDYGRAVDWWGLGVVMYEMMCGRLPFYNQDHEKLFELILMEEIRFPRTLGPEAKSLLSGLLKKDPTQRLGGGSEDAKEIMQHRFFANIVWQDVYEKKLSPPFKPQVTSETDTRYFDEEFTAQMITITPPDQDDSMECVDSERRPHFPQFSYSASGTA
The target of experiment [5] is T2, Mitogen-activated protein kinase 1 and 3 (ERK2 and ERK1) (Mus musculus) (UniProt P63085+Q63844). Description: Inhibition of ERK1/2 phosphorylation in mouse BaF3 cells harboring L858R mutant assessed as ERK1/2 phosphorylation at 10 to 1000 nM incubated for 8 hrs by Western blot analysis. Type of experiment: cell-based. To be noted: dose 10-1000 nM.
T2 sequence (P63085 whole entry, looked up): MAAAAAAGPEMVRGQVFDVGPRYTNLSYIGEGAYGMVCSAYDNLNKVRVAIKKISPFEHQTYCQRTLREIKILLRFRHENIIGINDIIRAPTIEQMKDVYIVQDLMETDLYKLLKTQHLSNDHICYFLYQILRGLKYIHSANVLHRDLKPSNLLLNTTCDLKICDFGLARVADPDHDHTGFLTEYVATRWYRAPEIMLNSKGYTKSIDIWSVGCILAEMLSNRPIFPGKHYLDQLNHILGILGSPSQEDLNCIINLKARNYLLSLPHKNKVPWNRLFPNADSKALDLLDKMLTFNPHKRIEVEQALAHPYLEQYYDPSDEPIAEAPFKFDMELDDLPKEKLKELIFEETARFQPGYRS
T2 sequence (Q63844 whole entry, looked up): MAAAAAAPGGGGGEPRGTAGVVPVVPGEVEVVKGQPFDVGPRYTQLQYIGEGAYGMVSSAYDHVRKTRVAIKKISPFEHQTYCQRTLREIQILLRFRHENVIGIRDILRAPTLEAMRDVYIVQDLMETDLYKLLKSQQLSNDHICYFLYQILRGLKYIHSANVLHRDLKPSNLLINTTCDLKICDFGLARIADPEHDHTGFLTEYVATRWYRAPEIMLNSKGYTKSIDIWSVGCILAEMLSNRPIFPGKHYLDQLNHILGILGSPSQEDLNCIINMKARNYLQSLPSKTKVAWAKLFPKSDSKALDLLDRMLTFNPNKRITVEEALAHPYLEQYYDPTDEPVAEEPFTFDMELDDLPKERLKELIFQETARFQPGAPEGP
Experiment [6] concerns the target T3, Cyclin-G-associated kinase (Homo sapiens) (UniProt O14976).
T3 sequence (whole entry): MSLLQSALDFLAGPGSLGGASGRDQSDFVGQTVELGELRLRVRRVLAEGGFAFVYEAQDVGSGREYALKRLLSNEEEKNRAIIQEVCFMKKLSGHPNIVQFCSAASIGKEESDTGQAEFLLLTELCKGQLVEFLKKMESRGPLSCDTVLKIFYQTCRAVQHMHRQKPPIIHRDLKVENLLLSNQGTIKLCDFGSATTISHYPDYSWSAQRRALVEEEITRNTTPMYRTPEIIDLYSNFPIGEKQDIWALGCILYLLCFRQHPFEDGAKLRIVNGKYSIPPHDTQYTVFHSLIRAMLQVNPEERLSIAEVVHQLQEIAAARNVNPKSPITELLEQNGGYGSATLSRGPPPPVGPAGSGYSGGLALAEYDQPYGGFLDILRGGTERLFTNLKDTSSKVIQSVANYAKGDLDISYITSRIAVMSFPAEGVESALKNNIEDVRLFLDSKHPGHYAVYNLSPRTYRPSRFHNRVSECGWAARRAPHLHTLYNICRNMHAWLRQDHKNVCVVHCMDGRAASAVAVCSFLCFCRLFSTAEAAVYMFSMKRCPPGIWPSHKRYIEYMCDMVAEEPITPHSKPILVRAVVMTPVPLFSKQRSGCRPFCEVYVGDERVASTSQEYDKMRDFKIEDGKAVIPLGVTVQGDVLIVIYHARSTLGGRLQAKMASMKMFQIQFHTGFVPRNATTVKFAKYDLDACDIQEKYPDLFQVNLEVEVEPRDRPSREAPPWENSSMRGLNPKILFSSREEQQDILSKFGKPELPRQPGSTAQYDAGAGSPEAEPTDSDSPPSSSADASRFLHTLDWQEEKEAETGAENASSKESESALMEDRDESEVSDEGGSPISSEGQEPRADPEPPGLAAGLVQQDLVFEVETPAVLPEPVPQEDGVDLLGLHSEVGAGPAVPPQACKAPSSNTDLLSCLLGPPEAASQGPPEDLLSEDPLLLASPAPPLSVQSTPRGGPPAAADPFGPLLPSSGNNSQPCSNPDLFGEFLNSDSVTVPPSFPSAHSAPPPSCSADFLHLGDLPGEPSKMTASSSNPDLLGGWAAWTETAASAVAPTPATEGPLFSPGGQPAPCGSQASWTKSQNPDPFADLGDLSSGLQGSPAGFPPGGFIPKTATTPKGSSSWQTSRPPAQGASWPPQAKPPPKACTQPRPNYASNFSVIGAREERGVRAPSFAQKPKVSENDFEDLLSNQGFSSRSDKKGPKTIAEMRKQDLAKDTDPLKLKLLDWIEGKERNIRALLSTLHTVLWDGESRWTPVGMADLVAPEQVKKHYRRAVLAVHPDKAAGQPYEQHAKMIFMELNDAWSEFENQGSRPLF
The experiment is described as follows: Binding affinity to recombinant GAK (unknown origin) assessed as change in melting temperature 10 uM by differential scanning fluorimetry.

The target in experiment [7] is Epidermal growth factor receptor (Homo sapiens, UniProt P00533, EX19DEL).
Chain of Epidermal growth factor receptor (P00533 whole entry, looked up, stated change not applied): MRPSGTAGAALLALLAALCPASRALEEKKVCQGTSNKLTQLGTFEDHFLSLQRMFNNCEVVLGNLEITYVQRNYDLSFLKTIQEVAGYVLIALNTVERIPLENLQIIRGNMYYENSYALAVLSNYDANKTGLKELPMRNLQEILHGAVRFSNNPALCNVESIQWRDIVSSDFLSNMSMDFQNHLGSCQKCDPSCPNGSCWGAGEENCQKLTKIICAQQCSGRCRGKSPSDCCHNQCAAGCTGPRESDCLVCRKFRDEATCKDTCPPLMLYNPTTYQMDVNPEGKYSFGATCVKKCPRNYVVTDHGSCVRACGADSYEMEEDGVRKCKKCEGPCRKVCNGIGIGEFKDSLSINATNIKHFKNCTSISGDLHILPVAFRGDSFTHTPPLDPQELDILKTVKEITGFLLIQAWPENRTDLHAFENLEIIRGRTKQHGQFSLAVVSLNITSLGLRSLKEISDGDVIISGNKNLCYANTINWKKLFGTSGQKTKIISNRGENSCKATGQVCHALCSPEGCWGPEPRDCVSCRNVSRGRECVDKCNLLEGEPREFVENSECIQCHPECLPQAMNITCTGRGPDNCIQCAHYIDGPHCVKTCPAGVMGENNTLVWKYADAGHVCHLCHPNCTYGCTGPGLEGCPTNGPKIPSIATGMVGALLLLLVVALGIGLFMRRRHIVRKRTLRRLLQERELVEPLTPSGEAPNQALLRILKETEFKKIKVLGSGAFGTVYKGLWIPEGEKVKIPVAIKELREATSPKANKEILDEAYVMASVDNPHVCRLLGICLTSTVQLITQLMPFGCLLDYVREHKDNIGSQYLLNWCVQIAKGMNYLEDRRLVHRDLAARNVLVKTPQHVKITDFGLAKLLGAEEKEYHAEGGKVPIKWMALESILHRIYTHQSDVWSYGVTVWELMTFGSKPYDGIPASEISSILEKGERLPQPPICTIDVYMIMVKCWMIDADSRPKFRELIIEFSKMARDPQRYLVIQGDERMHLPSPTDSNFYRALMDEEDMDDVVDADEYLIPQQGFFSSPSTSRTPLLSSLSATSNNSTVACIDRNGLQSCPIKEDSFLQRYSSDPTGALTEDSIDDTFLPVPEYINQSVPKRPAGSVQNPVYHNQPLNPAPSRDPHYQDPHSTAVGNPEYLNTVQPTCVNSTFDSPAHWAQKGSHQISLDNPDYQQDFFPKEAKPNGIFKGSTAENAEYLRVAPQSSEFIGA
Experiment [8] has as its target T2, Mitogen-activated protein kinase 1 and 3 (ERK2 and ERK1) (Mus musculus). Type of experiment: cell-based. To be noted: BaF3, dose 10-1000 nM, time 8.0 hrs.
The subject of experiment [9] is BaF3. The experiment is described as follows: cells. Type of experiment: functional, cell-based. To be noted: Mus musculus, BaF3, 72 h.
Description: Antiproliferative activity against mouse BaF3 cells expressing Del19 assessed as cell viability measured after 72 hrs hrs by CellTiter Glo assay
The subject of experiment [10] is BaF3. Description: cells. To be noted: Mus musculus, BaF3, 72 h. This is another data set of the same source.
Experiment [11] deals with BaF3. Description: cells. To be noted: Mus musculus, BaF3, 72 h. The source holds these as a separate data set.
Experiment [12] concerns the target RAC-alpha serine/threonine-protein kinase (Mus musculus) (UniProt P31750). Type of experiment: cell-based. To be noted: BaF3, dose 10-1000 nM, time 8.0 hrs.
Experiment [13] has as its system Epidermal growth factor receptor (Homo sapiens), P04626+P00533+Q15303+P21860 [L858R]. To be noted: Mus musculus; BaF3; dose 10-1000 nM, time 8.0 hrs.
Experiment [14] deals with T2, Mitogen-activated protein kinase 1 and 3 (ERK2 and ERK1) (Mus musculus). Type of experiment: cell-based. To be noted: BaF3, dose 10-1000 nM, time 8.0 hrs. This is another data set of the same source.
In experiment [15] the target is RAC-alpha serine/threonine-protein kinase (Mus musculus) (UniProt P31750). Type of experiment: cell-based. To be noted: BaF3, dose 10-1000 nM, time 8.0 hrs. This is another data set of the same source.

Active and inactive are the calls of the source. The calls are words filed in the database; no cut-off is given here.

The results in this text go back to ChEMBL document CHEMBL5150044, “Macrocyclization of Quinazoline-Based EGFR Inhibitors Leads to Exclusive Mutant Selectivity for EGFR L858R and Del19” (J Med Chem, 2022).

Chain of BMP-2-inducible protein kinase (Homo sapiens) (Q9NSY1 whole entry, looked up): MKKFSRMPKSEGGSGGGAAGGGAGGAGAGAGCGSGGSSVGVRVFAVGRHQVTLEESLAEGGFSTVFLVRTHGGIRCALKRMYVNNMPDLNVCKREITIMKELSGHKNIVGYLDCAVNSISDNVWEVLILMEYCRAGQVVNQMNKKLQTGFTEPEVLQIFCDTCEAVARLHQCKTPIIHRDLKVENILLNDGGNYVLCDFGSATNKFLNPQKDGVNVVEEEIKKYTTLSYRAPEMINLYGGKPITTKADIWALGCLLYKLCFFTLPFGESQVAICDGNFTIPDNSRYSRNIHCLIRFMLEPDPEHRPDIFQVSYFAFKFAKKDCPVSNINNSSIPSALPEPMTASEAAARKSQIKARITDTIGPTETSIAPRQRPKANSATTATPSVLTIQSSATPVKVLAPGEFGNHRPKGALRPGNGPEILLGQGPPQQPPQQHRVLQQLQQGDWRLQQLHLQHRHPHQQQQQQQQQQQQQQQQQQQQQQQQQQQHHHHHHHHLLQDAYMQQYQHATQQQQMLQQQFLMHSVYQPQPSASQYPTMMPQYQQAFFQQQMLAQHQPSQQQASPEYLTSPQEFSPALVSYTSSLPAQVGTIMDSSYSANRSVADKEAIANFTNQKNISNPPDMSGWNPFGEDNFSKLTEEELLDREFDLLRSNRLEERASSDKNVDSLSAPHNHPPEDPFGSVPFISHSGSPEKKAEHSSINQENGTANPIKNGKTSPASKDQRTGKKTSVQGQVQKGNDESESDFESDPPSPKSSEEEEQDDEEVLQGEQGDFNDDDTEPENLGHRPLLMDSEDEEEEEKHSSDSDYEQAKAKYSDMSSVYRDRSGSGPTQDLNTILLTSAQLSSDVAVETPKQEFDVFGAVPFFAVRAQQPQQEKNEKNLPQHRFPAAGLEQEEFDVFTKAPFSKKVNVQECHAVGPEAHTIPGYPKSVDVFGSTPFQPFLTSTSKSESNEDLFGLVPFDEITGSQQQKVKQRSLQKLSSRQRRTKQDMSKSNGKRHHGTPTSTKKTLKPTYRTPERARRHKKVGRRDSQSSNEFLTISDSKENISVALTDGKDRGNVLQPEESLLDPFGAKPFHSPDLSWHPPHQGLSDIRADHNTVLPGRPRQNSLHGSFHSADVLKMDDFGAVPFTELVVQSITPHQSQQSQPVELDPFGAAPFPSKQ

As for `COc1cc2ncnc(Nc3cc(Cl)c(F)cc3O)c2cc1O`, the ΔTm in [1], in experiment [3] and in experiment [6] was over 3 °C each time. Besides, the IC50 in the experiment with BaF3 [2] was determined as 206 nM; in experiment [7], 11.5 nM; with BaF3 [9], 121 nM; in the experiment on BaF3 [10], 141 nM; with BaF3 [11], 93.1 nM. Besides, the inhibition result in experiment [4], in experiment [5], in experiment [8], in experiment [12], in experiment [13] and in [14] was “Active” each time. In addition, in experiment [15], the inhibition entry was “Active”.

By ΔTm is commonly meant the change in melting temperature against a reference sample. A word on the IC50: it is the midpoint of a concentration-inhibition curve. A low value points to inhibition by little substance.
